Key:
[1] = system: Cyperus esculentus; experiment: Post-emergence herbicidal activity, greenhouse pot test; assay type: in vivo; details: one-leaf stage, 80 g/ha, scored visually after approx. 3 weeks, 100% = plants have died, 0% = like control
Description: (§1) Seeds of monocotyledonous or dicotyledonous weed plants or crop plants are placed in sandy loam in wood fiber pots, covered with soil and grown in a greenhouse under good growth conditions. 2 to 3 weeks after sowing, the test plants are treated in the one-leaf stage. The compounds according to the invention, which are formulated as wettable powders (WP), are then sprayed onto the green plant parts in the form of an aqueous suspension or emulsion with a water application rate of 600 l/ha (converted) with addition of 0.2% of wetting agent. After the test plants have been left to stand in the greenhouse for approximately 3 weeks under optimal growth conditions, the activity of the preparation is scored visually in comparison with untreated controls (herbicidal activity in percent (%): 100% activity=the plants have died, 0% activity=like control plants).

[2] = system: Alopecurus myosuroides; experiment: as above; assay type: in vivo; details: one-leaf stage, 80 g/ha, scored visually after approx. 3 weeks, 100% = plants have died, 0% = like control
Description: as §1

[3] = system: Matricaria inodora; experiment: as above; assay type: in vivo; details: one-leaf stage, 80 g/ha, scored visually after approx. 3 weeks, 100% = plants have died, 0% = like control
Description: as §1

[4] = system: Amaranthus retroflexus; experiment: as above; assay type: in vivo; details: one-leaf stage, 80 g/ha, scored visually after approx. 3 weeks, 100% = plants have died, 0% = like control
Description: as §1

[5] = system: Abutilon theophrasti; experiment: as above; assay type: in vivo; details: one-leaf stage, 80 g/ha, scored visually after approx. 3 weeks, 100% = plants have died, 0% = like control
Description: as §1

[6] = system: Polygonum convolvulus; experiment: as above; assay type: in vivo; details: one-leaf stage, 80 g/ha, scored visually after approx. 3 weeks, 100% = plants have died, 0% = like control
Description: as §1

[7] = system: Echinochloa crus-galli; experiment: as above; assay type: in vivo; details: one-leaf stage, 80 g/ha, scored visually after approx. 3 weeks, 100% = plants have died, 0% = like control
Description: as §1

[8] = system: Alopecurus myosuroides; experiment: Pre-emergence herbicidal activity, greenhouse pot test; assay type: in vivo; details: 80 g/ha, scored visually after approx. 3 weeks, 100% = plants have died, 0% = like control
Description: (§2) Seeds of monocotyledonous or dicotyledonous weed plants or crop plants are placed in sandy loam in wood fiber pots and covered with soil. The compounds according to the invention, which are formulated as wettable powders (WP), are then applied to the surface of the soil cover in the form of an aqueous suspension or emulsion with a water application rate of 600 l/ha (converted), with addition of 0.2% wetting agent.
(§3) After the treatment, the pots are placed in a greenhouse and maintained under good growth conditions for the test plants. After approximately 3 weeks, the activity of the preparations is scored visually in comparison with untreated controls (herbicidal activity in percent (%): 100% activity=the plants have died, 0% activity=like control plants).

[9] = system: Lolium multiflorum; experiment: as above; assay type: in vivo; details: 80 g/ha, scored visually after approx. 3 weeks, 100% = plants have died, 0% = like control
Description: as §2, §3

[10] = system: Pharbitis purpurea; experiment: Post-emergence herbicidal activity, greenhouse pot test; assay type: in vivo, Pharbitis (Ipomoea) purpurea; details: one-leaf stage, 80 g/ha, scored visually after approx. 3 weeks, 100% = plants have died, 0% = like control
Description: as §1

[11] = system: Pharbitis purpurea; experiment: Pre-emergence herbicidal activity, greenhouse pot test; assay type: in vivo, Pharbitis/Ipomoea purpurea; details: 80 g/ha, scored visually after approx. 3 weeks, 100% = plants have died, 0% = like control
Description: as §2, §3

[12] = system: Viola tricolor; experiment: Post-emergence herbicidal activity, greenhouse pot test; assay type: in vivo; details: one-leaf stage, 80 g/ha, scored visually after approx. 3 weeks, 100% = plants have died, 0% = like control
Description: as §1

[13] = system: Cyperus esculentus; experiment: Pre-emergence herbicidal activity, greenhouse pot test; assay type: in vivo; details: 80 g/ha, scored visually after approx. 3 weeks, 100% = plants have died, 0% = like control
Description: as §2, §3

[14] = system: Veronica persica; experiment: as above; assay type: in vivo; details: 80 g/ha, scored visually after approx. 3 weeks, 100% = plants have died, 0% = like control
Description: as §2, §3

[15] = system: Viola tricolor; experiment: as above; assay type: in vivo; details: 80 g/ha, scored visually after approx. 3 weeks, 100% = plants have died, 0% = like control
Description: as §2, §3

[16] = system: Matricaria inodora; experiment: as above; assay type: in vivo; details: 80 g/ha, scored visually after approx. 3 weeks, 100% = plants have died, 0% = like control
Description: as §2, §3

[17] = system: Stellaria media; experiment: as above; assay type: in vivo; details: 80 g/ha, scored visually after approx. 3 weeks, 100% = plants have died, 0% = like control
Description: as §2, §3

| Compound | herbicidal activity CYPES [1] [%] | herbicidal activity ALOMY [2] [%] | herbicidal activity MATIN [3] [%] | herbicidal activity AMARE [4] [%] | herbicidal activity ABUTH [5] [%] | herbicidal activity POLCO [6] [%] | herbicidal activity ECHCG [7] [%] | herbicidal activity ALOMY [8] [%] | herbicidal activity LOLMU [9] [%] | herbicidal activity PHBPU [10] [%] | herbicidal activity PHBPU [11] [%] | herbicidal activity VIOTR [12] [%] | herbicidal activity CYPES [13] [%] | herbicidal activity VERPE [14] [%] | herbicidal activity VIOTR [15] [%] | herbicidal activity MATIN [16] [%] | herbicidal activity STEME [17] [%] |
| --- | --- | --- | --- | --- | --- | --- | --- | --- | --- | --- | --- | --- | --- | --- | --- | --- | --- |
| Cc1cc(C)nc(NC(=O)NS(=O)(=O)c2ccccc2OC(C)C(F)(F)F)n1 (stereo not shown) [Compound I-1, N-[(4,6-Dimethylpyrimidin-2-yl)carbamoyl]-2-(2,2,2-trifluoro-1-methylethoxy)-benzenesulfonamide] | 80 | 90 | 80 | 80 | 90 | 90 | 80 | 80 | 80 |  |  |  |  |  |  |  |  |
| COc1cc(C)nc(NC(=O)NS(=O)(=O)c2ccccc2OC(C)C(F)(F)F)n1 (stereo not shown) [Compound I-2] | 80 | 90 | 80 |  | 90 | 90 | 80 | 90 | 90 | 80 | 80 | 90 | 100 | 80 | 80 | 80 | 80 |
| COc1cc(Cl)nc(NC(=O)NS(=O)(=O)c2ccccc2OC(C)C(F)(F)F)n1 (stereo not shown) [Compound I-3] | 80 | 80 | 90 |  | 90 | 80 |  | 80 | 80 | 90 | 80 | 80 | 100 | 80 |  | 80 |  |
| COc1cc(OC)nc(NC(=O)NS(=O)(=O)c2ccccc2OC(C)C(F)(F)F)n1 (stereo not shown) [Compound I-4] | 80 | 90 | 90 |  | 100 | 80 | 80 | 80 | 80 | 80 | 80 | 90 | 90 | 80 | 80 | 80 |  |
| COc1nc(C)nc(NC(=O)NS(=O)(=O)c2ccccc2OC(C)C(F)(F)F)n1 (stereo not shown) [Compound I-5, N-[(4-Methoxy-6-methyl-1,3,5-triazin-2-yl)carbamoyl]-2-(2,2,2-trifluoro-1-methylethoxy)benzenesulfonamide] |  | 90 | 90 | 100 | 90 | 90 |  | 90 |  | 90 | 80 | 90 |  | 90 | 80 | 80 | 80 |
| COc1nc(NC(=O)NS(=O)(=O)c2ccccc2OC(C)C(F)(F)F)nc(OC)n1 (stereo not shown) [Compound I-6] |  |  | 90 | 80 | 90 | 90 |  | 80 |  | 90 | 80 | 90 | 100 | 80 | 80 | 80 | 80 |

— patent US20110105324A1, “Herbicidal Compounds Based on N-Azinyl-N-Phenylsulfonylureas” (BAYER CROPSCIENCE AG, priority 2008, published 2011)
